Laboratory results published in the supplement of paper PMC5662764.
± gives the standard deviation of the averaged measurements.

Experiments:
Assay in all cases: normalised growth rate inhibition (GR value) relative to DMSO control (GR (1 = untreated growth, 0 = cytostasis, <0 = cytotoxic)); higher = less growth inhibition
Conditions in all cases: 72 h
MCF10A = test system: MCF10A
Procedure: (§1)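 Breast cancer cell lines (BT-20, Hs 578T, MCF 10A, MCF7, MDA-MB-231, SK-BR-3) were plated in 384-well plates and treated 24 h later with drugs at six concentrations (0.04-10 µM). Viable cells were counted by Hoechst/dead-cell-stain imaging at 0 and 72 h. Counts were normalised to DMSO controls on the same plate to give the relative cell count and the growth-rate inhibition (GR) value; technical plate triplicates were averaged for each biological replicate.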

BT20 = test system: BT20
Procedure: as §1

SKBR3 = test system: SKBR3
Procedure: as §1

HS578T = test system: HS578T
Procedure: as §1

MCF7 = test system: MCF7
Procedure: as §1

MDAMB231 = test system: MDAMB231
Procedure: as §1

| Structure (SMILES) | normalised growth rate inhibition (MCF10A; 0.04 µM) | normalised growth rate inhibition (MCF10A; 0.12 µM) | normalised growth rate inhibition (MCF10A; 0.37 µM) | normalised growth rate inhibition (MCF10A; 1.11 µM) | normalised growth rate inhibition (MCF10A; 3.33 µM) | normalised growth rate inhibition (MCF10A; 10 µM) | normalised growth rate inhibition (BT20; 0.04 µM) | normalised growth rate inhibition (BT20; 0.12 µM) | normalised growth rate inhibition (BT20; 0.37 µM) | normalised growth rate inhibition (BT20; 1.11 µM) | normalised growth rate inhibition (BT20; 3.33 µM) | normalised growth rate inhibition (BT20; 10 µM) | normalised growth rate inhibition (SKBR3; 0.04 µM) | normalised growth rate inhibition (SKBR3; 0.12 µM) | normalised growth rate inhibition (SKBR3; 0.37 µM) | normalised growth rate inhibition (SKBR3; 1.11 µM) | normalised growth rate inhibition (SKBR3; 3.33 µM) | normalised growth rate inhibition (SKBR3; 10 µM) | normalised growth rate inhibition (HS578T; 0.04 µM) | normalised growth rate inhibition (HS578T; 0.12 µM) | normalised growth rate inhibition (HS578T; 0.37 µM) | normalised growth rate inhibition (HS578T; 1.11 µM) | normalised growth rate inhibition (HS578T; 3.33 µM) | normalised growth rate inhibition (HS578T; 10 µM) | normalised growth rate inhibition (MCF7; 0.04 µM) | normalised growth rate inhibition (MCF7; 0.12 µM) | normalised growth rate inhibition (MCF7; 0.37 µM) | normalised growth rate inhibition (MCF7; 1.11 µM) | normalised growth rate inhibition (MCF7; 3.33 µM) | normalised growth rate inhibition (MCF7; 10 µM) | normalised growth rate inhibition (MDAMB231; 0.04 µM) | normalised growth rate inhibition (MDAMB231; 0.12 µM) | normalised growth rate inhibition (MDAMB231; 0.37 µM) | normalised growth rate inhibition (MDAMB231; 1.11 µM) | normalised growth rate inhibition (MDAMB231; 3.33 µM) | normalised growth rate inhibition (MDAMB231; 10 µM) |
| --- | --- | --- | --- | --- | --- | --- | --- | --- | --- | --- | --- | --- | --- | --- | --- | --- | --- | --- | --- | --- | --- | --- | --- | --- | --- | --- | --- | --- | --- | --- | --- | --- | --- | --- | --- | --- |
| CC[C@H](CO)Nc1nc(NCc2ccccc2)c2ncn(C(C)C)c2n1 [roscovitine] | 0.9943 ± 0.0068 | 0.9805 ± 0.0066 | 0.9621 ± 0.0088 | 0.955 ± 0.014 | 0.926 ± 0.025 | 0.439 ± 0.19 | 1.022 ± 0.0042 | 0.9967 ± 0.0034 | 0.913 ± 0.029 | 0.844 ± 0.084 | 0.759 ± 0.062 | 0.197 ± 0.044 | 1.04 ± 0.093 | 1.04 ± 0.045 | 0.979 ± 0.085 | 0.852 ± 0.043 | 0.677 ± 0.023 | 0.146 ± 0.18 | 1.009 ± 0.01 | 1.01 ± 0.016 | 0.975 ± 0.011 | 0.954 ± 0.034 | 0.95 ± 0.054 | 0.688 ± 0.062 | 1.07 ± 0.066 | 1.02 ± 0.024 | 0.922 ± 0.048 | 0.818 ± 0.068 | 0.717 ± 0.087 | -0.102 ± 0.15 | 1.03 ± 0.035 | 0.971 ± 0.03 | 0.926 ± 0.03 | 0.88 ± 0.033 | 0.811 ± 0.077 | 0.401 ± 0.068 |
| N#CC[C@H](C1CCCC1)n1cc(-c2ncnc3[nH]ccc23)cn1 [ruxolitinib] | 0.9818 ± 0.0081 | 0.9898 ± 0.007 | 0.978 ± 0.011 | 0.956 ± 0.019 | 0.948 ± 0.021 | 0.828 ± 0.039 | 0.973 ± 0.066 | 0.942 ± 0.019 | 0.95 ± 0.046 | 0.973 ± 0.08 | 0.933 ± 0.087 | 0.707 ± 0.074 | 0.882 ± 0.12 | 0.903 ± 0.098 | 0.922 ± 0.086 | 0.918 ± 0.057 | 0.958 ± 0.084 | 0.81 ± 0.18 | 0.9891 ± 0.0054 | 0.985 ± 0.039 | 0.973 ± 0.023 | 0.9536 ± 0.0035 | 0.901 ± 0.021 | 0.693 ± 0.031 | 0.967 ± 0.062 | 0.948 ± 0.047 | 0.963 ± 0.042 | 1.05 ± 0.038 | 1.05 ± 0.027 | 0.778 ± 0.075 | 0.938 ± 0.065 | 0.922 ± 0.052 | 0.933 ± 0.087 | 0.95 ± 0.069 | 0.95 ± 0.043 | 0.673 ± 0.26 |
| CN1CCN(CCOc2cc(OC3CCOCC3)c3c(Nc4c(Cl)ccc5c4OCO5)ncnc3c2)CC1 [saracatinib] | 1.012 ± 0.0071 | 0.9684 ± 0.0069 | 0.906 ± 0.045 | 0.745 ± 0.12 | 0.534 ± 0.14 | 0.108 ± 0.033 | 0.993 ± 0.057 | 0.944 ± 0.024 | 0.877 ± 0.032 | 0.785 ± 0.06 | 0.621 ± 0.11 | 0.26 ± 0.07 | 1.15 ± 0.098 | 1.12 ± 0.1 | 1 ± 0.07 | 0.916 ± 0.08 | 0.763 ± 0.057 | 0.207 ± 0.11 | 0.9858 ± 0.0065 | 0.92 ± 0.039 | 0.828 ± 0.043 | 0.697 ± 0.088 | 0.609 ± 0.089 | 0.339 ± 0.092 | 0.854 ± 0.055 | 0.661 ± 0.12 | 0.43 ± 0.2 | 0.323 ± 0.27 | 0.228 ± 0.26 | 0.266 ± 0.21 | 0.862 ± 0.075 | 0.704 ± 0.086 | 0.587 ± 0.065 | 0.51 ± 0.09 | 0.489 ± 0.12 | 0.348 ± 0.11 |
